How the values were obtained:
COVID-19 = assay: Phase 3 multi-center, randomized, double-blind, placebo-controlled study of Bucillamine in patients with mild-moderate COVID-19; format: in vivo, human; conditions: Bucillamine 100 mg or 200 mg TID for up to 14 days, preliminary indications to date
Experimental: A Phase 3 confirmatory clinical trial titled, “A Multi-Center, Randomized, Double-Blind, Placebo-Controlled Study of Bucillamine in Patients with Mild-Moderate COVID-19”, was undertaken to enroll up to 1,000 patients randomized 1:1:1 to receive Bucillamine 100 mg three times a day (“TID”), Bucillamine 200 mg TID or placebo TID for up to 14 days. The primary objective is to compare the frequency of hospitalization or death in patients with mild-moderate COVID-19 receiving Bucillamine therapy with those receiving placebo. The primary endpoint is the proportion of patients meeting a composite endpoint of hospitalization or death from the time of the first dose through Day 28 following randomization. Efficacy was assessed by comparing clinical outcomes (death or hospitalization), disease severity using the 8-category NIAID COVID ordinal scale, supplemental oxygen use, and progression of COVID-19 between patients receiving standard-of-care plus Bucillamine (high dose and/or low dose) and patients receiving standard-of-care plus placebo.

[1] = versus N-acetylcysteine (NAC); cited from earlier work
[2] = statement with literature references 8, 9; cited from earlier work
[3] = not told; cited from earlier work

## CC(C)(S)C(=O)NC(CS)C(=O)O (stereo not drawn) [Bucillamine, N-(mercapto-2-methylpropionyl)-l-cysteine]
COVID-19
  hospitalization or death from COVID-19 (composite clinical outcome): none of the patients receiving Bucillamine in the trial have to date been hospitalised for COVID-19 or have died from COVID-19
[1]
  potency as a thiol donor in vivo relative to NAC: 16 fold
[2]
  toxicity: non-toxic
[3]
  cell permeability: highly cell permeable
